According to patent publication US4486434A, “Histamine H1 -antagonists” (Smith Kline & French Laboratories Limited, priority 1981, dated 1984):

Assay: rat whole body radiography
Assay type: in vivo
Source text: This has been shown by rat whole body radiography.

Cc1ccc(Cc2cnc(NCCCCc3ncc(Br)cc3C)[nH]c2=O)cn1 [Example 1, 2-[4-(5-bromo-3-methylpyrid-2-yl)-butylamino]-5-(6-methylpyrid-3-yl-methyl)-4-pyrimidone]
entry into the central nervous system: does not enter the central nervous system
